Assay results as given in US12655104B2, “Anticancer compounds selective for ER-positive cancers” (THE BOARD OF TRUSTEES OF THE UNIVERSITY OF ILLINOIS, priority 2020, dated 2026).
Like-named read-outs stand apart in the source and are kept apart here.

Legend:
[1] = Pharmacokinetic (PK) studies in mice; format: in vivo
Procedure: Pharmacokinetic (PK) Studies. […] Mice were then sacrificed in cohorts of 3 at time points (#, #, #). Blood was collected, centrifuged, and plasma separated for quantification of test compound utilizing LC-MS/MS (UIUC Metabolomics Center, Urbana, IL.). Determined compound concentration was then analyzed using non-linear regression programing (WinNonlin) and pharmacokinetic parameters estimated.

[2] = system: T47D-ERαD538G (TDG); assay: Alamar blue fluorescence viability (IC50), TDG; format: cell-based; conditions: TDG, ERα positive, 24 hr; read-out: IC50 24 hr
Procedure: (§1) Cancer Cell Lines: Culturing Conditions and Validation. All cell lines were cultured at 37° C. with 5% CO2. All ERα-positive cell lines were grown in media lacking phenol red. MCF-7 were grown in EMEM with 10% FBS and 1% penicillin-streptomycin (P/S). T47D were cultured in MEM with 10% FBS and 1% P/S. TYS and TDG cells were grown in MEM supplemented with 10% CD-FBS and 1% P/S. HCT-116 and MDA-MB-231 cells were cultured in RPMI-1640 supplemented with 10% FBS and 1% P/S. MDA-MB-436 cells were cultured in DMEM supplemented with 10% FBS and 1% P/S. HT-29 were cultured in McCoy's media supplemented with 10% FBS and 1% P/S. All cell lines were used directly from ATCC stocks and/or have been further authenticated using PowerPlex16HS Assay (Promega) as described previously.^54 In short, >1 million cells were harvested and lysed using the cell lysis buffer (50 mM Tris, 50 mM EDTA, 25 mM sucrose, 100 mM NaCl, 1% SDS, pH 8). […]
(§2) Alamar Blue Fluorescence for Anticancer Activity (IC50). […] After 2-6 hours incubation, each well's fluorescence (λexcit.=555 nm, λemission.=585 nm) was measured using a SpectraMax M3 plate reader (Molecular Devices). Percent dead was determined by comparison to a 100% dead control: 100 μM raptinal treated cells. Dose dependent curves and IC50 were calculated using Origin Pro V10.

[3] = system: T47D; assay: Alamar blue fluorescence viability (IC50), T47D; format: cell-based; conditions: Homo sapiens, 24 h, read-out: IC50 24 hr (μM)
Procedure: as §1, §2

[4] = Simulated gastric fluid (SGF) stability assay; format: in vitro ADME
Procedure: Simulated Gastric Fluid (SGF) Stability Assay. SGF was prepared fresh by adding 3.2 g pepsin (Sigma Aldrich P7000) to 1000 mL of SGF (Fischer Scientific 7108-16) and the pH adjusted to 1.2 using a pH meter. This SGFwith pepsin solution was then warmed to 37° C. 990 μL of warmed SGFwith pepsin was then aliquoted into multiple Eppendorf tubes, followed by 10 μL of 10 mM DMSO stock solutions of test compounds. Erythromycin (MedChemExpress HY-B0220) is a positive control for this stability assay. Samples were incubated at 37° C. for the entire experiment with vortexing every 15 minutes. At each desired time point (0, 15, 30, 60, 120 minutes), a 100 μL aliquot is removed and quenched into 50 μL of acetonitrile. Samples are stored at 4° C. until all time points are complete. Samples were then vortexed and then clarified at 3,000 RPM for 10 minutes in a 4° C. centrifuge. Supernatants were collected and compound concentrations determined by LC-MS/MS (UIUC Metabolomics Center, Urbana, IL.). Determined compound concentrations were used to calculate percent remaining compared to t=0 samples.

[5] = system: MDA-MB-231; assay: Alamar blue fluorescence viability (IC50), MDA-MB-231; format: cell-based; conditions: Homo sapiens, MDA-MB-231, ERα negative
Procedure: (§3) Cancer Cell Lines: Culturing Conditions and Validation. All cell lines were cultured at 37° C. with 5% CO2. All ERα-positive cell lines were grown in media lacking phenol red. MCF-7 were grown in EMEM with 10% FBS and 1% penicillin-streptomycin (P/S). T47D were cultured in MEM with 10% FBS and 1% P/S. TYS and TDG cells were grown in MEM supplemented with 10% CD-FBS and 1% P/S. HCT-116 and MDA-MB-231 cells were cultured in RPMI-1640 supplemented with 10% FBS and 1% P/S. MDA-MB-436 cells were cultured in DMEM supplemented with 10% FBS and 1% P/S. HT-29 were cultured in McCoy's media supplemented with 10% FBS and 1% P/S. All cell lines were used directly from ATCC stocks and/or have been further authenticated using PowerPlex16HS Assay (Promega) as described previously.^54 In short, >1 million cells were harvested and lysed using the cell lysis buffer (50 mM Tris, 50 mM EDTA, 25 mM sucrose, 100 mM NaCl, 1% SDS, pH 8). DNA extraction and short tandem repeats (STRs) profiling for each cell line were carried out at the University of Arizona Genetics Core (UAGC). Autosomal STR profiles were compared to reference databases such as ATCC, DSMZ, and JCRB.
(§4) Alamar Blue Fluorescence for Anticancer Activity (IC50). 2,000-15,000 cells per well were seeded a 96-well plate. Cells were allowed to adhere before DMSO stock solutions of test compounds were added to each well with a final concentration of DMSO in each well=1%; final volume: 100 μL. At the end of the desired incubation time (e.g., 24 or 72 hours), media in each well was aspirated and new fresh media (no compound, 100 μL) was added. Alamar blue solution (4 mg resazurin per 40 mL PBS) was then added (10 μL). After 2-6 hours incubation, each well's fluorescence (λexcit.=555 nm, λemission.=585 nm) was measured using a SpectraMax M3 plate reader (Molecular Devices). Percent dead was determined by comparison to a 100% dead control: 100 μM raptinal treated cells. Dose dependent curves and IC50 were calculated using Origin Pro V10.

[6] = system: canines; conditions: cited from earlier work
[7] = system: MCF-7 tumors; assay: MCF-7 orthotopic tumor model; format: in vivo, mice; conditions: I.V. 5 mg/kg once-a-week, three total doses
Procedure: MCF-7 Orthotopic Tumor Model. Nu/J ovariectomized mice (Jackson's lab) were supplemented with a 60-day E2 pellet (0.36 mg, Innovative Research of America) 2-3 days prior to tumor cell inoculation. MCF-7 cells (5×10^6, in 1:1 HBSS:matrigel) were inoculated into the mammary fat pad and allowed to establish and tumors grown to ˜300-400 mm^3 (˜21-28 days to establish). […] Tumor size was measured by caliper, and mouse weights were recorded.

[8] = system: HCT-116; assay: Alamar blue fluorescence viability (IC50), HCT-116; format: cell-based; conditions: for IC50: Homo sapiens, HCT-116, ERα negative
Procedure: as §3, §4

[9] = system: MCF-7 cells; assay: Alamar blue fluorescence viability (IC50), MCF-7; format: cell-based; conditions: Homo sapiens, MCF7
Procedure: as §3, §4

[10] = Maximum tolerated dose (MTD) in rats; format: in vivo; conditions: Sprague Dawley, rat, in vivo, iv
Source text: (§5) Maximum Tolerated Dose (MTD) Experiments in Mice and Rats. […] Rodents were monitored for signs of distress, lethargy, neurotoxicity, and so forth for multiple days after compound administration. […] The MTD was defined as the maximum dose in which any acute side effects observed were tolerated and no lethality observed.

[11] = system: HT-29; assay: Alamar blue fluorescence viability (IC50), HT-29; format: cell-based; conditions: Homo sapiens, HT-29, ERα negative
Procedure: as §3, §4

[12] = system: T47D-ERaY537S (TYS); assay: Alamar blue fluorescence viability (IC50), TYS; format: cell-based; conditions: 24 h, read-out: IC50 24 hr (μM)
Procedure: as §1, §2

[13] = Maximum tolerated dose (MTD) in mice; format: in vivo; conditions: female, CD-1, mouse, in vivo, iv
Source text: as §5

[14] = system: MDA-MB-436; assay: Alamar blue fluorescence viability (IC50), MDA-MB-436; format: cell-based; conditions: Homo sapiens
Procedure: as §3, §4

[15] = system: CD Sprague Dawley IGS rats; assay: Maximum tolerated dose (MTD) in rats; format: in vivo; conditions: rat, in vivo
Source text: as §5

[16] = system: CD-1 mice; assay: Maximum tolerated dose (MTD) in mice; format: in vivo; conditions: mouse, in vivo, iv
Source text: as §5

[17] = In vitro metabolite assessment of ErSO; format: in vitro ADME
[18] = female, CD-1, mouse, plasma, iv, I.V. 20 mg/kg
[19] = MCF-7 cells, 24 hours, Alamar blue, mean ± s.e.m., read-out: IC50

Compound: O=C1Nc2c(C(F)(F)F)cccc2[C@@]1(c1ccc(O)cc1)c1ccc(OC(F)(F)F)cc1 [ErSO, (R)-3-(4-hydroxyphenyl)-3-(4-(trifluoromethoxy)phenyl)-7-(trifluoromethyl)indolin-2-one, reference compound]
- CL ([1]; I.V. 20 mg/kg): 33 mL/min/kg
- AUC [1, 18]: 10100 ng·h/mL
- Cmax [1, 18]: 7710 ng/mL
- Vd ([1]; female, CD-1, mouse, plasma, iv, I.V. 20 mg/kg, read-out: Vss): 10.2 L/kg
- bioavailability ([1]; female, CD-1, mouse, plasma, po, read-out: oral availability F %): 47%
- IC50 [2]: 15 ± 1 nM
- IC50 [3]: 0.02 ± 0.001 µM
- % Remaining after 120 min (SD) ([4]; 100 μM in SGF with pepsin, 120 min): 93±1%
- half-life at 100 μM ([4]; simulated gastric fluid with pepsin, pH 1.2, SGF with pepsin, read-out: half-life in SGF): > 2 h
- IC50 ([5]; 24 hr, read-out: IC50 24 hr): 23000 ± 3000 nM
- IC50 ([5]; 72 hr, read-out: IC50 72 hr): 8000 ± 1000 nM
- tolerated oral dose [6]: greater than 150 mg/kg
- mouse weight change during MCF-7 study [7]: no significant weight change
- effects bottom out at (% cell death at lower concentrations) ([8]; HCT-116 cells, bottom of IC50 curve): ~38%
- IC50 ([8]; 24 hr, read-out: IC50 24 hr): 11000 nM
- IC50 ([8]; 72 hr, read-out: IC50 72 hr): 260 nM
- IC50 ([9]; MCF-7, ERα positive, 24 hr, read-out: IC50 24 hr): 20 ± 2 nM
- IC50 ([9]; MCF-7, ERα positive, 72 hr, read-out: IC50 72 hr): 14 ± 1 nM
- IC50 [9, 19]: 20 nM
- MTD [10]: 10 to 15 mg/kg
- IC50 ([11]; 24 hr, read-out: IC50 24 hr): 210 ± 60 nM
- IC50 ([11]; 72 hr, read-out: IC50 72 hr): 250 ± 70 nM
- IC50 [12]: 0.01 ± 0.001 µM
- MTD [13]: 20 mg/kg
- IC50 ([14]; MDA-MB-436, 24 h, read-out: IC50 24 hr (μM)): 22 ± 1 µM
- IC50 ([14]; MDA-MB-436, 72 h, read-out: IC50 72 hr (μM)): 14 ± 1 µM

Compound: O=C1Nc2c(C(F)(F)F)cccc2[C@]1(c1ccc(OC(F)(F)F)cc1)c1ccc(O)c(O)c1 [ErSO-OH, (S)-3-(3,4-dihydroxyphenyl)-3-(4-(trifluoromethoxy)phenyl)-7-(trifluoromethyl)indolin-2-one]
- IC50 [9, 19]: 24 nM
- rat tolerability (in words) [15]: no gains in rat tolerability
- intravenous tolerability in mice (in words) [16]: greater intravenous tolerability in mice
- abundance as metabolite of ErSO [17]: < 1%
